Tests used:
Type in all cases: in vivo
Euschistus heros = test: Example B3: activity against Euschistus heros (neotropical brown stink bug), soybean leaves; conditions: 120 h, N2 nymphs, 5 days after infestation, read-out: effect in at least one of the two categories (mortality or growth inhibition)
Protocol: Soybean leaves on agar in 24-well microtiter plates were sprayed with aqueous test solutions prepared from 10′000 ppm DMSO stock solutions. After drying the leaves were infested with N2 nymphs. The samples were assessed for mortality and growth inhibition in comparison to untreated samples 5 days after infestation. The following compounds gave an effect of at least 80% in at least one of the two categories (mortality or growth inhibition) at an application rate of 200 ppm: […]

Plutella xylostella = test: Example B5: activity against Plutella xylostella (diamond back moth), artificial diet, eggs; conditions: 192 h, 8 days after infestation, read-out: effect in at least one of the two categories (mortality or growth inhibition)
Summary of the method: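 Artificial diet in 24-well plates was treated with aqueous dilutions of DMSO stocks, dried, then infested with Plutella eggs. Mortality and growth inhibition were scored against untreated samples 8 days after infestation; application rate 200 ppm.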

Spodoptera littoralis = test: Example B6: activity against Spodoptera littoralis (Egyptian cotton leaf worm), cotton leaf discs; conditions: foliar, 72 h, 200 ppm, L1 larvae, 3 days after infestation, read-out: control (at least one of mortality, anti-feedant effect, growth inhibition)
Summary of the method: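 Five L1 larvae per sprayed, dried cotton leaf disc on agar. Activity is counted when mortality, anti-feedant effect or growth inhibition exceeds the untreated sample at day 3.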

Chilo suppressalis = test: Example B1: activity against Chilo suppressalis (striped rice stemborer), artificial diet; conditions: 144 h, 200 ppm, L2 larvae, 6 days after infestation, read-out: control (at least one of mortality, anti-feedant effect, growth inhibition)
Summary of the method: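 Diet-incorporation surface assay: aqueous dilutions of 10'000 ppm DMSO stock applied to artificial diet, dried; 6-8 L2 larvae/well; read day 6 post-infestation for mortality, antifeedant effect, growth inhibition vs untreated. Active if any category above untreated.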

Diabrotica balteata = test: Example B2: activity against Diabrotica balteata (corn root worm), maize sprouts; conditions: 96 h, L2 larvae, 4 days after infestation, read-out: effect in at least one of the two categories (mortality or growth inhibition)
Summary of the method: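 Maize sprouts on agar were sprayed with aqueous test solutions made from 10′000 ppm DMSO stocks, dried, then infested with 6–10 L2 larvae per well. Mortality and growth inhibition were scored against untreated samples 4 days after infestation, at an application rate of 200 ppm.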

Myzus persicae = test: Example B4: activity against Myzus persicae (green peach aphid), intrinsic activity; conditions: 120 h, test rate 12 ppm, 5 days after infestation
Protocol: Test compounds prepared from 10′000 ppm DMSO stock solutions were applied by pipette into 24-well microtiter plates and mixed with sucrose solution. The plates were closed with a stretched Parafilm. A plastic stencil with 24 holes was placed onto the plate and infested pea seedlings were placed directly on the Parafilm. The infested plate was closed with a gel blotting paper and another plastic stencil and then turned upside down. The samples were assessed for mortality 5 days after infestation.

Pseudoplusia includens = test: Example B9: Pseudoplusia includens (soybean looper), larvicide, feeding/contact, soybean plants; conditions: Chrysodeixis includens, 120 h; 50 ppm; L2 larvae; 5 days after infestation; read-out: effect in at least one of the two categories (mortality or growth inhibition)
Protocol: Soybean plants were treated in a spray chamber, cut off and placed into petri dishes containing wet filter paper. 1d after application leaves were infested with 5 L2 larvae and covered with a fabric filter and plastic lids. 5 days after infestation the samples were assessed for mortality and growth inhibition. The following compounds gave an effect of at least 80% in at least one of the two categories (mortality or growth inhibition) at an application rate of 50 ppm: […]

C[C@H](Nc1ncnc2c(Br)cc(Br)cc12)c1ncnn1-c1cnc(C(N)=O)cn1 [Compound P74, 5-[5-[(1S)-1-[(6,8-dibromoquinazolin-4-yl)amino]ethyl]-1,2,4-triazol-1-yl]pyrazine-2-carboxamide]
≥ 80%: percent effect (mortality or growth inhibition) at 200 ppm (Euschistus heros) | percent effect (mortality or growth inhibition) at 200 ppm (Plutella xylostella) | percent control (mortality, anti-feedant effect or growth inhibition) at 200 ppm (Spodoptera littoralis)

C[C@H](Nc1ncnc2c(C(F)(F)F)cc(Cl)cc12)c1ncnn1-c1ncc(C(N)=O)cn1 [Compound P68, 2-[5-[(1S)-1-[[6-chloro-8-(trifluoromethyl)quinazolin-4-yl]amino]ethyl]-1,2,4-triazol-1-yl]pyrimidine-5-carboxamide]
≥ 80%: percent effect (mortality or growth inhibition) at 200 ppm (Euschistus heros)

CNC(=O)c1cnc(-n2ncnc2[C@H](C)Nc2ncnc3c(C(F)(F)F)cc(Cl)cc23)s1 [Compound P7, 2-[5-[(1S)-1-[[6-chloro-8-(trifluoromethyl)quinazolin-4-yl]amino]ethyl]-1,2,4-triazol-1-yl]-N-methyl-thiazole-5-carboxamide]
≥ 80%: percent control (mortality, anti-feedant effect or growth inhibition) at 200 ppm (Chilo suppressalis) | percent effect (mortality or growth inhibition) at 200 ppm (Diabrotica balteata) | percent effect (mortality or growth inhibition) at 200 ppm (Euschistus heros) | percent effect (mortality or growth inhibition) at 200 ppm (Plutella xylostella) | percent control (mortality, anti-feedant effect or growth inhibition) at 200 ppm (Spodoptera littoralis)

C[C@@H](c1ncnn1-c1cc(C(N)=O)ncn1)N(C)c1ncnc2c(Br)cc(Br)cc12 [Compound P48, 6-[5-[(1S)-1-[(6,8-dibromoquinazolin-4-yl)-methyl-amino]ethyl]-1,2,4-triazol-1-yl]pyrimidine-4-carboxamide]
≥ 80%: percent control (mortality, anti-feedant effect or growth inhibition) at 200 ppm (Chilo suppressalis) | percent effect (mortality or growth inhibition) at 200 ppm (Diabrotica balteata) | percent effect (mortality or growth inhibition) at 200 ppm (Euschistus heros) | mortality at 12 ppm (Myzus persicae) | percent effect (mortality or growth inhibition) at 200 ppm (Plutella xylostella) | percent control (mortality, anti-feedant effect or growth inhibition) at 200 ppm (Spodoptera littoralis)

CNC(=O)c1cc(-n2ncnc2[C@H](C)Nc2ncnc3c(Cl)cc(C(F)(F)F)cc23)ncn1 [Compound P16, 6-[5-[(1S)-1-[[8-chloro-6-(trifluoromethyl)quinazolin-4-yl]amino]ethyl]-1,2,4-triazol-1-yl]-N-methyl-pyrimidine-4-carboxamide]
≥ 80%: percent control (mortality, anti-feedant effect or growth inhibition) at 200 ppm (Chilo suppressalis) | percent effect (mortality or growth inhibition) at 200 ppm (Diabrotica balteata) | mortality at 12 ppm (Myzus persicae) | percent effect (mortality or growth inhibition) at 200 ppm (Plutella xylostella) | percent control (mortality, anti-feedant effect or growth inhibition) at 200 ppm (Spodoptera littoralis) | percent effect (mortality or growth inhibition) at 50 ppm (Pseudoplusia includens)

C[C@H](Nc1ncnc2c(I)cc(Cl)cc12)c1ncnn1-c1cnc(C(N)=O)cn1 [Compound P75, 5-[5-[(1S)-1-[(6-chloro-8-iodo-quinazolin-4-yl)amino]ethyl]-1,2,4-triazol-1-yl]pyrazine-2-carboxamide]
≥ 80%: percent control (mortality, anti-feedant effect or growth inhibition) at 200 ppm (Chilo suppressalis) | percent effect (mortality or growth inhibition) at 200 ppm (Diabrotica balteata) | percent effect (mortality or growth inhibition) at 200 ppm (Euschistus heros) | mortality at 12 ppm (Myzus persicae) | percent effect (mortality or growth inhibition) at 200 ppm (Plutella xylostella) | percent control (mortality, anti-feedant effect or growth inhibition) at 200 ppm (Spodoptera littoralis)

C[C@H](Nc1ncnc2c(C(F)(F)F)cc(Cl)cc12)c1ncnn1-c1ncc(C(N)=O)s1 [Compound P8]
≥ 80%: percent control (mortality, anti-feedant effect or growth inhibition) at 200 ppm (Chilo suppressalis) | percent effect (mortality or growth inhibition) at 200 ppm (Diabrotica balteata) | mortality at 12 ppm (Myzus persicae) | percent effect (mortality or growth inhibition) at 200 ppm (Plutella xylostella) | percent control (mortality, anti-feedant effect or growth inhibition) at 200 ppm (Spodoptera littoralis) | percent effect (mortality or growth inhibition) at 50 ppm (Pseudoplusia includens)

C[C@@H](c1ncnn1-c1cc(C(N)=O)ncn1)N(C)c1ncnc2c(Cl)cc(C(F)(F)F)cc12 [Compound P51, 6-[5-[(1S)-1-[[8-chloro-6-(trifluoromethyl)quinazolin-4-yl]-methyl-amino]ethyl]-1,2,4-triazol-1-yl]pyrimidine-4-carboxamide]
≥ 80%: percent control (mortality, anti-feedant effect or growth inhibition) at 200 ppm (Chilo suppressalis) | percent effect (mortality or growth inhibition) at 200 ppm (Diabrotica balteata) | percent effect (mortality or growth inhibition) at 200 ppm (Euschistus heros) | mortality at 12 ppm (Myzus persicae) | percent effect (mortality or growth inhibition) at 200 ppm (Plutella xylostella) | percent control (mortality, anti-feedant effect or growth inhibition) at 200 ppm (Spodoptera littoralis)

C[C@H](Nc1ncnc2c(C(F)(F)F)cc(Cl)cc12)c1ncnn1-c1cc(C(=O)N(C)O)ncn1 [Compound P46, 6-[5-[(1S)-1-[[6-chloro-8-(trifluoromethyl)quinazolin-4-yl]amino]ethyl]-1,2,4-triazol-1-yl]-N-hydroxy-N-methyl-pyrimidine-4-carboxamide]
≥ 80%: percent control (mortality, anti-feedant effect or growth inhibition) at 200 ppm (Chilo suppressalis) | percent effect (mortality or growth inhibition) at 200 ppm (Diabrotica balteata) | mortality at 12 ppm (Myzus persicae) | percent effect (mortality or growth inhibition) at 200 ppm (Plutella xylostella) | percent control (mortality, anti-feedant effect or growth inhibition) at 200 ppm (Spodoptera littoralis)

C[C@H](Nc1ncnc2c(Br)cc(Br)cc12)c1ncnn1-c1ncc(C(N)=O)s1 [Compound P36, 2-[5-[(1S)-1-[(6,8-dibromoquinazolin-4-yl)amino]ethyl]-1,2,4-triazol-1-yl]thiazole-5-carboxamide]
≥ 80%: percent control (mortality, anti-feedant effect or growth inhibition) at 200 ppm (Chilo suppressalis) | percent effect (mortality or growth inhibition) at 200 ppm (Diabrotica balteata) | mortality at 12 ppm (Myzus persicae) | percent effect (mortality or growth inhibition) at 200 ppm (Plutella xylostella) | percent control (mortality, anti-feedant effect or growth inhibition) at 200 ppm (Spodoptera littoralis)

CNC(=O)c1cc(-n2ncnc2[C@H](C)N(C)c2ncnc3c(I)cc(Cl)cc23)ncn1 [Compound P33, 6-[5-[(1S)-1-[(6-chloro-8-iodo-quinazolin-4-yl)-methyl-amino]ethyl]-1,2,4-triazol-1-yl]-N-methyl-pyrimidine-4-carboxamide]
≥ 80%: percent control (mortality, anti-feedant effect or growth inhibition) at 200 ppm (Chilo suppressalis) | percent effect (mortality or growth inhibition) at 200 ppm (Diabrotica balteata) | mortality at 12 ppm (Myzus persicae) | percent effect (mortality or growth inhibition) at 200 ppm (Plutella xylostella) | percent control (mortality, anti-feedant effect or growth inhibition) at 200 ppm (Spodoptera littoralis) | percent effect (mortality or growth inhibition) at 50 ppm (Pseudoplusia includens)

C[C@H](Nc1ncnc2c(C(F)(F)F)cc(Cl)cc12)c1ncnn1-c1cc(C(=O)N(C)CC#N)ncn1 [Compound P62, 6-[5-[(1S)-1-[[6-chloro-8-(trifluoromethyl)quinazolin-4-yl]amino]ethyl]-1,2,4-triazol-1-yl]-N-(cyanomethyl)-N-methyl-pyrimidine-4-carboxamide]
≥ 80%: percent control (mortality, anti-feedant effect or growth inhibition) at 200 ppm (Chilo suppressalis) | percent effect (mortality or growth inhibition) at 200 ppm (Diabrotica balteata) | mortality at 12 ppm (Myzus persicae) | percent effect (mortality or growth inhibition) at 200 ppm (Plutella xylostella) | percent control (mortality, anti-feedant effect or growth inhibition) at 200 ppm (Spodoptera littoralis) | percent effect (mortality or growth inhibition) at 50 ppm (Pseudoplusia includens)

Reference: patent publication US20260132125A1, “PESTICIDALLY ACTIVE FUSED BICYCLIC HETEROAROMATIC COMPOUNDS” (priority 2022, published 2026)
